Legend:
Escherichia coli [1] = experiment: Antimicrobial activity against Escherichia coli 25922 assessed as absence bacterial growth measured after 18 to 24 hrs incubation in presence of MgCl2 by NCCLS method; assay type: functional; details: time 18-24 hrs
Salmonella typhimurium [2] = experiment: Antimicrobial activity against Salmonella typhimurium C7731 assessed as bacterial killing measured after 16 hrs incubation; assay type: functional, Salmonella enterica subsp. enterica serovar Typhimurium; details: Salmonella enterica
Escherichia coli [3] = experiment: Antimicrobial activity against Escherichia coli K88 assessed as absence bacterial growth measured after 18 to 24 hrs incubation by NCCLS method; assay type: functional; details: time 18-24 hrs
Bacillus cereus [4] = experiment: Antimicrobial activity against Bacillus cereus 1.932 assessed as absence bacterial growth measured after 18 to 24 hrs incubation by NCCLS method; assay type: functional; details: time 18-24 hrs
Escherichia coli [5] = experiment: Antimicrobial activity against Escherichia coli 25922 assessed as absence bacterial growth measured after 18 to 24 hrs incubation in presence of FeCl3 by NCCLS method; assay type: functional; details: time 18-24 hrs
[6] = system: Staphylococcus epidermidis; experiment: Antimicrobial activity against Staphylococcus epidermidis 12228 assessed as absence bacterial growth measured after 18 to 24 hrs incubation by NCCLS method; assay type: functional; details: time 18-24 hrs
Listeria monocytogenes [7] = experiment: Antimicrobial activity against Listeria monocytogenes 1.10753 assessed as absence bacterial growth measured after 18 to 24 hrs incubation by NCCLS method; assay type: functional; details: time 18-24 hrs
Escherichia coli [8] = experiment: Antimicrobial activity against Escherichia coli 25922 assessed as absence bacterial growth measured after 18 to 24 hrs incubation in presence of NH4Cl by NCCLS method; assay type: functional; details: time 18-24 hrs
Acinetobacter baumannii [9] = experiment: Antimicrobial activity against Acinetobacter baumannii 1.6769 assessed as bacterial killing measured after 16 hrs incubation; assay type: functional
Staphylococcus aureus [10] = experiment: Antimicrobial activity against Staphylococcus aureus 29213 assessed as absence bacterial growth measured after 18 to 24 hrs incubation by NCCLS method; assay type: functional; details: time 18-24 hrs
Salmonella typhimurium [11] = experiment: Antimicrobial activity against Salmonella typhimurium 14028 assessed as absence bacterial growth measured after 18 to 24 hrs incubation by NCCLS method; assay type: functional, Salmonella enterica subsp. enterica serovar Typhimurium; details: Salmonella enterica, time 18-24 hrs
Staphylococcus aureus [12] = experiment: Antimicrobial activity against Staphylococcus aureus 29213 assessed as absence bacterial growth measured after 18 to 24 hrs incubation by NCCLS m; assay type: functional; details: time 18-24 hrs
Pseudomonas aeruginosa [13] = experiment: Antimicrobial activity against Pseudomonas aeruginosa 27853 assessed as bacterial killing measured after 16 hrs incubation; assay type: functional
Escherichia coli [14] = experiment: Antimicrobial activity against Escherichia coli 25922 assessed as absence bacterial growth measured after 18 to 24 hrs incubation by NCCLS method; assay type: functional; details: time 18-24 hrs
Pseudomonas aeruginosa [15] = experiment: Antimicrobial activity against Pseudomonas aeruginosa 27853 assessed as absence bacterial growth measured after 18 to 24 hrs incubation by NCCLS method; assay type: functional; details: time 18-24 hrs
[16] = Antimicrobial activity against Salmonella pullorum C7913 assessed as bacterial killing measured after 16 hrs incubation; assay type: functional, Salmonella enterica subsp. enterica serovar Pullorum; details: Salmonella enterica
Escherichia coli [17] = experiment: Antimicrobial activity against Escherichia coli 25922 assessed as absence bacterial growth measured after 18 to 24 hrs incubation in presence of 50% serum by NCCLS method; assay type: functional; details: time 18-24 hrs
Staphylococcus aureus [18] = experiment: Antimicrobial activity against Staphylococcus aureus 25923 assessed as bacterial killing measured after 16 hrs incubation; assay type: functional
Acinetobacter baumannii [19] = experiment: Antimicrobial activity against Acinetobacter baumannii 1.6769 assessed as absence bacterial growth measured after 18 to 24 hrs incubation by NCCLS method; assay type: functional; details: time 18-24 hrs
Escherichia coli [20] = experiment: Antimicrobial activity against Escherichia coli 25922 assessed as absence bacterial growth measured after 18 to 24 hrs incubation in presence of 25% serum by NCCLS method; assay type: functional; details: time 18-24 hrs
[21] = system: Staphylococcus epidermidis; experiment: Antimicrobial activity against Staphylococcus epidermidis 12228 assessed as bacterial killing measured after 16 hrs incubation; assay type: functional
Escherichia coli [22] = experiment: Antimicrobial activity against Escherichia coli K88 assessed as bacterial killing measured after 16 hrs incubation; assay type: functional
Escherichia coli [23] = experiment: Antimicrobial activity against Escherichia coli 25922 assessed as absence bacterial growth measured after 18 to 24 hrs incubation in presence of NaCl by NCCLS method; assay type: functional; details: time 18-24 hrs
Erythrocyte = experiment: Hemolytic activity in human RBC at effective concentration measured after 1 hr by microplate reader analysis; assay type: toxicity, cell-based
[24] = Cytotoxicity against porcine IPEC-J2 cells assessed as cell survival rate measured after 8 hrs by MTT assay; assay type: toxicity, cell-based, Sus scrofa; details: pig
Listeria monocytogenes [25] = experiment: Antimicrobial activity against Listeria monocytogenes 1.10753 assessed as bacterial killing measured after 16 hrs incubation; assay type: functional
[26] = Antimicrobial activity against Salmonella pullorum C7913 assessed as absence bacterial growth measured after 18 to 24 hrs incubation by NCCLS method; assay type: functional, Salmonella enterica subsp. enterica serovar Pullorum; details: Salmonella enterica, time 18-24 hrs
Salmonella typhimurium [27] = experiment: Antimicrobial activity against Salmonella typhimurium 14028 assessed as bacterial killing measured after 16 hrs incubation; assay type: functional, Salmonella enterica subsp. enterica serovar Typhimurium; details: Salmonella enterica
Staphylococcus aureus [28] = experiment: Antimicrobial activity against Staphylococcus aureus 29213 assessed as bacterial killing measured after 16 hrs incubation; assay type: functional
[29] = Cytotoxicity against mouse RAW264.7 cells assessed as cell survival rate measured after 8 hrs by MTT assay; assay type: toxicity, cell-based
Staphylococcus aureus [30] = experiment: Antimicrobial activity against Methicillin-resistant Staphylococcus aureus 43300 assessed as bacterial killing measured after 16 hrs incubation; assay type: functional
Enterococcus faecalis [31] = experiment: Antimicrobial activity against Enterococcus faecalis 29212 assessed as bacterial killing measured after 16 hrs incubation; assay type: functional
Enterococcus faecalis [32] = experiment: Antimicrobial activity against Enterococcus faecalis 29212 assessed as absence bacterial growth measured after 18 to 24 hrs incubation by NCCLS method; assay type: functional; details: time 18-24 hrs
Salmonella typhimurium [33] = experiment: Antimicrobial activity against Salmonella typhimurium C7731 assessed as absence bacterial growth measured after 18 to 24 hrs incubation by NCCLS method; assay type: functional, Salmonella enterica subsp. enterica serovar Typhimurium; details: Salmonella enterica, time 18-24 hrs
Bacillus cereus [34] = experiment: Antimicrobial activity against Bacillus cereus 1.932 assessed as bacterial killing measured after 16 hrs incubation; assay type: functional
Escherichia coli [35] = experiment: Antimicrobial activity against Escherichia coli 25922 assessed as absence bacterial growth measured after 18 to 24 hrs incubation in presence of KCl by NCCLS method; assay type: functional; details: time 18-24 hrs
Escherichia coli [36] = experiment: Antimicrobial activity against Escherichia coli 25922 assessed as absence bacterial growth measured after 18 to 24 hrs incubation in presence of ZnCl2 by NCCLS method; assay type: functional; details: time 18-24 hrs
[37] = Cytotoxicity against human HEK-293T cells assessed as cell survival rate measured after 8 hrs by MTT assay; assay type: toxicity, cell-based
Escherichia coli [38] = experiment: Antimicrobial activity against Escherichia coli 25922 assessed as absence bacterial growth measured after 18 to 24 hrs incubation in presence of 12.5% serum by NCCLS method; assay type: functional; details: time 18-24 hrs
Escherichia coli [39] = experiment: Antimicrobial activity against Escherichia coli 25922 assessed as bacterial killing measured after 16 hrs incubation; assay type: functional
Staphylococcus aureus [40] = experiment: Antimicrobial activity against Methicillin-resistant Staphylococcus aureus 43300 assessed as absence bacterial growth measured after 18 to 24 hrs incubation by NCCLS method; assay type: functional; details: time 18-24 hrs

Substance: H-GKLWLKGIKLWLKGGKLWLKG-NH2
- MIC (Escherichia coli [1]): 8 µM
- MBC (Salmonella typhimurium [2]): 8 µM
- MIC (Escherichia coli [3]): 1 µM
- MIC (Bacillus cereus [4]): 2 µM
- MIC (Escherichia coli [5]): 2 µM
- MIC [6]: 4 µM
- MIC (Listeria monocytogenes [7]): > 32 µM
- MIC (Escherichia coli [8]): 2 µM
- MBC (Acinetobacter baumannii [9]): 2 µM
- MIC (Staphylococcus aureus [10]): 8 µM
- MIC (Salmonella typhimurium [11]): 2 µM
- MIC (Staphylococcus aureus [12]): 4 µM
- MBC (Pseudomonas aeruginosa [13]): 8 µM
- MIC (Escherichia coli [14]): 2 µM
- MIC (Pseudomonas aeruginosa [15]): 4 µM
- MBC [16]: 1 µM
- MIC (Escherichia coli [17]): > 32 µM
- MBC (Staphylococcus aureus [18]): 4 µM
- MIC (Acinetobacter baumannii [19]): 2 µM
- MIC (Escherichia coli [20]): > 32 µM
- MBC [21]: 4 µM
- MBC (Escherichia coli [22]): 1 µM
- MIC (Escherichia coli [23]): 4 µM
- HC10 (Erythrocyte): 64 µM
- IC50 at 8 h [24]: 18.9 µM
- MBC (Listeria monocytogenes [25]): > 32 µM
- MIC [26]: 1 µM
- MBC (Salmonella typhimurium [27]): 2 µM
- MBC (Staphylococcus aureus [28]): 8 µM
- IC50 at 8 h [29]: 36.9 µM
- MBC (Staphylococcus aureus [30]): 2 µM
- MBC (Enterococcus faecalis [31]): 8 µM
- MIC (Enterococcus faecalis [32]): 4 µM
- MIC (Salmonella typhimurium [33]): 8 µM
- MBC (Bacillus cereus [34]): 2 µM
- MIC (Escherichia coli [35]): 2 µM
- MIC (Escherichia coli [36]): 2 µM
- IC50 at 8 h [37]: 33.5 µM
- MIC (Escherichia coli [38]): 16 µM
- MBC (Escherichia coli [39]): 2 µM
- MIC (Staphylococcus aureus [40]): 2 µM

Substance: H-GKLWLKGLKLWLKGGKLWLKG-NH2
- MIC (Escherichia coli [1]): 4 µM
- MBC (Salmonella typhimurium [2]): 16 µM
- MIC (Escherichia coli [3]): 1 µM
- MIC (Bacillus cereus [4]): 4 µM
- MIC (Escherichia coli [5]): 2 µM
- MIC [6]: 2 µM
- MIC (Listeria monocytogenes [7]): > 32 µM
- MIC (Escherichia coli [8]): 2 µM
- MBC (Acinetobacter baumannii [9]): 2 µM
- MIC (Staphylococcus aureus [10]): 4 µM
- MIC (Salmonella typhimurium [11]): 1 µM
- MIC (Staphylococcus aureus [12]): 4 µM
- MBC (Pseudomonas aeruginosa [13]): 32 µM
- MIC (Escherichia coli [14]): 2 µM
- MIC (Pseudomonas aeruginosa [15]): 4 µM
- MBC [16]: 1 µM
- MIC (Escherichia coli [17]): > 32 µM
- MBC (Staphylococcus aureus [18]): 8 µM
- MIC (Acinetobacter baumannii [19]): 2 µM
- MIC (Escherichia coli [20]): > 32 µM
- MBC [21]: 4 µM
- MBC (Escherichia coli [22]): 1 µM
- MIC (Escherichia coli [23]): 4 µM
- HC10 (Erythrocyte): 64 µM
- IC50 at 8 h [24]: 21.1 µM
- MBC (Listeria monocytogenes [25]): > 32 µM
- MIC [26]: 1 µM
- MBC (Salmonella typhimurium [27]): 1 µM
- MBC (Staphylococcus aureus [28]): 4 µM
- IC50 at 8 h [29]: 32.7 µM
- MBC (Staphylococcus aureus [30]): 2 µM
- MBC (Enterococcus faecalis [31]): 4 µM
- MIC (Enterococcus faecalis [32]): 4 µM
- MIC (Salmonella typhimurium [33]): 4 µM
- MBC (Bacillus cereus [34]): 4 µM
- MIC (Escherichia coli [35]): 2 µM
- MIC (Escherichia coli [36]): 2 µM
- IC50 at 8 h [37]: 47.2 µM
- MIC (Escherichia coli [38]): 16 µM
- MBC (Escherichia coli [39]): 2 µM
- MIC (Staphylococcus aureus [40]): 2 µM

Reference: ChEMBL document CHEMBL5518215, “Unlocking Antibacterial Potential: Key-Site-Based Regulation of Antibacterial Spectrum of Peptides” (J Med Chem, 2024)
